Results from ChEMBL document CHEMBL1201862, “PubChem BioAssay data set” (2004).
Active and inactive are the calls of the source.

Key:
[1] = growth inhibition of yeast DHODH-expressing 3D7 parasites – SYBR Green, dry powder samples, dose response (AID 1159570); assay type: functional, cell-based;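 also: parasite growth measured after 72 hours of compound exposure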
[2] = toxicity to human HepG2 hepatoma cells – cell-based, plate reader, dry powder samples, cytotoxicity control, dose response (AID 1159569); assay type: functional;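 also: inhibitor potency with signal falling toward the positive control level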
[3] = growth inhibition of PfATP4-mutant resistant parasites – NITD609-resistant line, SYBR Green, dry powder, dose response (AID 1159571); assay type: functional, cell-based;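 also: parasites synchronized at ring stage by sorbitol before testing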
[4] = toxicity to human hepatoma HepG2 cells – cell-based, cherry-picked samples, cytotoxicity control, dose response (AID 1159577); assay type: functional
[5] = Dd2 malaria parasite growth inhibition potency – SYBR Green, dry powder samples, dose response (AID 1159566); assay type: functional, cell-based;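 also: potency for growth inhibition with lower SYBR green DNA signal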
[6] = P. falciparum Dd2 growth inhibitors, dose response, SYBR Green, cherry-picked samples (AID 1159567); assay type: functional, cell-based
[7] = toxicity toward HepG2 liver cells – cell-based, plate reader, cherry-pick, antagonist series, cytotoxicity control, dose response (AID 743416); assay type: functional
[8] = A549 cell cytotoxicity, dose response, cytotoxicity control, plate reader, cherry-pick, antagonist series (AID 743412); assay type: functional, cell-based
[9] = blockers of bursicon-stimulated LGR2 cAMP reporter – cell-based, HEK293, CRE-luciferase reporter, cherry pick, set 2, dose response (AID 743343); assay type: functional;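 also: transfected cells were stimulated with diluted bursicon conditioned medium after compound addition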
[10] = Dd2 parasite growth inhibition in erythrocytes – SYBR Green, dry powder samples, set 9, dose response (AID 1159568); assay type: functional, cell-based
[11] = blockade of melanocortin 4 receptor signaling – cell-based, plate reader, cherry pick, counter-screen for LGR2 antagonist project, dose response (AID 743444); assay type: functional;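 also: transfected HEK 293 cells stimulated with alpha-MSH peptide; potency of inhibitors of the alpha-MSH evoked signal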
[12] = biological target: T1, Histone-lysine N-methyltransferase NSD2 (Homo sapiens, UniProt O96028); assay type: biochemical
T1 sequence (O96028 whole entry): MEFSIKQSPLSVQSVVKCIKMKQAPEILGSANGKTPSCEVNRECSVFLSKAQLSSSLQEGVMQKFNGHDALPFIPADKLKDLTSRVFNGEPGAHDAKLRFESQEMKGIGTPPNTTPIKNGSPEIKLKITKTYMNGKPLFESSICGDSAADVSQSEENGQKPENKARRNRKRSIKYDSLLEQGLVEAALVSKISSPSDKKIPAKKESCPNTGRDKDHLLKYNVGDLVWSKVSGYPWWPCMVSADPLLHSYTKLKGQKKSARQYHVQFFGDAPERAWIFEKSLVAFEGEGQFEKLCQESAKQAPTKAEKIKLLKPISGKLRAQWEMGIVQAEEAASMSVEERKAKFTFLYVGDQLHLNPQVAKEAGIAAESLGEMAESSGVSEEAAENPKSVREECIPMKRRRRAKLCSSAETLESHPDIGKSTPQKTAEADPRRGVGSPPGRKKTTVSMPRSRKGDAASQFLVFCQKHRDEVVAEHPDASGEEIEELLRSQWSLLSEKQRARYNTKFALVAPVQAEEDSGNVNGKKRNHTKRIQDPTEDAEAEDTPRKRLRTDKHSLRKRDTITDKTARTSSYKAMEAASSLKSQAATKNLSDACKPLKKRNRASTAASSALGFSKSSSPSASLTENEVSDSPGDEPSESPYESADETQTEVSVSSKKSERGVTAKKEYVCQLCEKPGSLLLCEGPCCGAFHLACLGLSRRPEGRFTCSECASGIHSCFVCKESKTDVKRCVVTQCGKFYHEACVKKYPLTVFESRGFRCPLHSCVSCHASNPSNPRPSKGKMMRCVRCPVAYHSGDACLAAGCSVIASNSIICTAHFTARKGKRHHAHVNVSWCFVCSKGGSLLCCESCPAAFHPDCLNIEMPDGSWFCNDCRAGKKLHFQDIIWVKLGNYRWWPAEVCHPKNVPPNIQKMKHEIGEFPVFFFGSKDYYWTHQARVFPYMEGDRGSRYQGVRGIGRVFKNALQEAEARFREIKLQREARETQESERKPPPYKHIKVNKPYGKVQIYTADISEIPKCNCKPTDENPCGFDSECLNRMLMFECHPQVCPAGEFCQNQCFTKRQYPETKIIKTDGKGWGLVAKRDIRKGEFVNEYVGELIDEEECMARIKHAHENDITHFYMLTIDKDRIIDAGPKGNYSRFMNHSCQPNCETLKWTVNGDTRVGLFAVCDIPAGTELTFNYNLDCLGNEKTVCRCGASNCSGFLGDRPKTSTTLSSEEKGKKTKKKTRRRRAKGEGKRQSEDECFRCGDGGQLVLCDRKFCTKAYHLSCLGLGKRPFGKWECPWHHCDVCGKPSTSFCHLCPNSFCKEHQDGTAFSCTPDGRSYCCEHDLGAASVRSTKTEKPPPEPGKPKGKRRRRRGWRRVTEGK

Caspase-6 = biological target: T2, Caspase-6 (Homo sapiens, UniProt P55212); test: inhibition of CASP6 peptide cleavage – biochemical, VEID-R110 fluorescence, cherry-pick, dose response (AID 720632)
T2 sequence (P55212 whole entry): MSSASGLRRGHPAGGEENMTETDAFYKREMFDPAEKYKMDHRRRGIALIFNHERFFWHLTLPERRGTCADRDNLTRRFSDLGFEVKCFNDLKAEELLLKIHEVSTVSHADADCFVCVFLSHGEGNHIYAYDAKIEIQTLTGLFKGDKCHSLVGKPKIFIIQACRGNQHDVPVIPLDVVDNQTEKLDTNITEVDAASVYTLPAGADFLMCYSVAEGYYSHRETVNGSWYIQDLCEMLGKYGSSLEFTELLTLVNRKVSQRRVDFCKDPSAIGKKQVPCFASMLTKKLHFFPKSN

[13] = biological target: T3, Tyrosyl-DNA phosphodiesterase 2 (Homo sapiens, UniProt O95551); test: potency against TDP2 phosphodiesterase activity – biochemical, epi absorbance, IC50, dose response (AID 743297)
T3 sequence (O95551 whole entry): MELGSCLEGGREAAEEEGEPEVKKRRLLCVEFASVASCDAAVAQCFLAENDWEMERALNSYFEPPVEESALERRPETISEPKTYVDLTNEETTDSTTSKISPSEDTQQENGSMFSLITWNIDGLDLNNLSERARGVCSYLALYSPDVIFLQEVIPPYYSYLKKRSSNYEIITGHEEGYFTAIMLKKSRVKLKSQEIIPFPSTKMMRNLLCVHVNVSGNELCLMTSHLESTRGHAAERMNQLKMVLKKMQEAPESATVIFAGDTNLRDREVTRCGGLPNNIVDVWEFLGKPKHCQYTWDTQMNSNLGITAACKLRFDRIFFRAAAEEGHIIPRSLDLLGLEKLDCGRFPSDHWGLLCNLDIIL

[14] = cytotoxicity toward HCT116 cells – cell-based, CellTiter-Glo luminescence, IC50, dose response (AID 1117332); assay type: functional; conditions: HCT-116
[15] = HCT116 cell viability decrease, GSK3B pretreatment – CellTiter-Glo, IC50, dose response (AID 1117339); assay type: functional; conditions: HCT-116
[16] = SNU-C1 cell viability reduction, dose response, CellTiter-Glo luminescence (AID 1117323); assay type: functional, cell-based
[17] = RKO cell viability reduction, dose response, CellTiter-Glo luminescence (AID 1117322); assay type: functional
[18] = cytotoxicity toward HT-29 cells – cell-based, CellTiter-Glo luminescence, IC50, dose response (AID 1117330); assay type: functional
[19] = CellTiter-Glo luminescence survival assay, SW480 colon tumor line, concentration-response curve, half-maximal inhibitory concentration (AID 1117338); assay type: functional
[20] = Reduced DLD-1 viability, concentration-response, CellTiter-Glo luminescence (AID 1117352); assay type: functional
[21] = cytotoxicity toward Colo320 cells – cell-based, CellTiter-Glo luminescence, IC50, dose response (AID 1117334); assay type: functional; conditions: COLO 320
[22] = biological target: Mitogen-activated protein kinase 10 (Homo sapiens, UniProt P53779); test: Dose response biochemical screening assay for inhibitors of c-Jun N-Terminal Kinase 3 (JNK3). [Related pubchem assays: 746 ]
[23] = Potency on glucagon-like peptide 1 release, dose-response in NCI-H716 cell line, half maximal inhibitory concentration (AID 1117344); assay type: functional, cell-based
[24] = glucagon-like peptide-1 release potency in STC-1, concentration-response, half-maximal inhibitory concentration in the STC-1 line (AID 1117345); assay type: functional, cell-based

Sequence of Mitogen-activated protein kinase 10 (P53779 whole entry): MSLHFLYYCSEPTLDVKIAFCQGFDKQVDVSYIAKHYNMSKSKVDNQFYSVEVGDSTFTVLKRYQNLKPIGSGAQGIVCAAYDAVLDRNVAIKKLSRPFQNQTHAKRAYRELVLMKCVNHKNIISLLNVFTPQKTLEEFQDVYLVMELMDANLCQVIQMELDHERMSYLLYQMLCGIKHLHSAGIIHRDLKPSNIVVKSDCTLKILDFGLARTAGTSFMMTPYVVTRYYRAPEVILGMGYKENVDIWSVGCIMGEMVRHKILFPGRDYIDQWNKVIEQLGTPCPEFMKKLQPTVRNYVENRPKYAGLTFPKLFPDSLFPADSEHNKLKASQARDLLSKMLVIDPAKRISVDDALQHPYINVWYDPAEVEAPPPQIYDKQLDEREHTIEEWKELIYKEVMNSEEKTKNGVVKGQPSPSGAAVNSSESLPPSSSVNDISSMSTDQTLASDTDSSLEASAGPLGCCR

Question: Which results are given for C[C@@H]1CN([C@H](C)CO)S(=O)(=O)c2ccc(C#Cc3ccncc3)cc2O[C@H]1CN(C)S(=O)(=O)c1ccc(F)cc1?
Answer: AC50 [1]: 0.682 µM (active); AC50 [2]: 3.66 µM (active); AC50 [3]: 1.17 µM (active); AC50 [4]: > 39 µM (inactive); AC50 [5]: 1.14 µM (active); AC50 [6]: 2.17 µM (active)

Question: For O=C(C[C@@H]1C[C@H]2c3cc(NC(=O)c4ccc5c(c4)OCO5)ccc3O[C@H]2[C@@H](CO)O1)NCc1ccc(Oc2ccccc2)cc1, which AC50 [7] is on record?
Answer: 20.5 µM (active)

Question: And the AC50 [8]?
Answer: 35.3 µM (active)

Question: And the AC50 [9]?
Answer: 32.7 µM (active)

Question: And the AC50 [10]?
Answer: > 39 µM (inactive)

Question: With C[C@@H]1CN([C@@H](C)CO)C(=O)c2cccc(NC(=O)c3ccc(-c4nccs4)cc3)c2O[C@@H]1CN(C)C(=O)Nc1ccc(C(F)(F)F)cc1 as the molecule, how does the AC50 [7] read?
Answer: 33.2 µM (active)

Question: And the AC50 [8]?
Answer: 25.5 µM (active)

Question: What about the AC50 [11] of the same molecule?
Answer: 54.1 µM (active)

Question: And the AC50 [9]?
Answer: 43.7 µM (active)

Question: What about the AC50 [10] of the same molecule?
Answer: 2.16 µM (active)

Question: With Cc1cnc(C2OCCO2)c2cccc(N)c12 as the molecule, how does the AC50 [12] read?
Answer: 18.5 µM (active)

Question: And the AC50 (Caspase-6)?
Answer: 26.2 µM (active)

Question: And the IC50 [13]?
Answer: > 129 µM (inactive)

Question: Which IC50 [14] does the source give for CN1CCN(c2cc3c(nn2)Oc2ccccc2N3C)CC1 [PIPOFEZINE] here?
Answer: > 20 µM (inactive)

Question: What about the IC50 [15] of the same molecule?
Answer: > 20 µM (inactive)

Question: And the IC50 [16]?
Answer: > 20 µM (inactive)

Question: And the IC50 [17]?
Answer: > 20 µM (inactive)

Question: What about the IC50 [18] of the same molecule?
Answer: > 20 µM (inactive)

Question: And the IC50 [19]?
Answer: > 20 µM (inactive)

Question: What about the IC50 [20] of the same molecule?
Answer: > 20 µM (inactive)

Question: And the IC50 [21]?
Answer: > 20 µM (inactive)

Question: Which IC50 [22] does the source give for COc1ccc(CNC(=O)c2cnn3c(C(F)F)cc(C)nc23)cc1OC here?
Answer: > 31 µM (not active)

Question: Which AC50 [1] does the source give for C[C@@H]1CN([C@@H](C)CO)C(=O)c2ccccc2-c2ccccc2CO[C@H]1CN(C)C(=O)Nc1cccc(Cl)c1Cl here?
Answer: 0.0978 µM (active)

Question: And the AC50 [2]?
Answer: > 100 µM (inactive)

Question: And the AC50 [3]?
Answer: 0.437 µM (active)

Question: And the AC50 [5]?
Answer: 0.107 µM (active)

Question: What about the AC50 [6] of the same molecule?
Answer: 0.418 µM (active)

Question: Which results are given for OC1(c2ccc(Cl)c(C(F)(F)F)c2)CCN(CCCC(c2ccc(F)cc2)c2ccc(F)cc2)CC1 [PENFLURIDOL]?
Answer: IC50 [14]: 1.85 µM (active); IC50 [16]: 0.168 µM (active); IC50 [17]: 0.971 µM (active); IC50 [18]: 0.946 µM (active); IC50 [20]: 1.14 µM (active); IC50 [21]: 0.962 µM (active); IC50 [23]: 8.45 µM (inactive); IC50 [24]: > 40 µM (inactive)
